Measured values published in ChEMBL document CHEMBL1201862, “PubChem BioAssay data set” (2004).
Activity calls are given as the source filed them.

How the values were obtained:
[1] = inhibitors of non-replicating M. tuberculosis, dose response, luciferase, dry powder (AID 651619); assay type: functional; conditions: Mycobacterium tuberculosis
[2] = inhibitors of non-replicating M. tuberculosis, dose response, luciferase, dry powder (AID 651620); assay type: functional; conditions: Mycobacterium tuberculosis
[3] = molecular target: T1, Oxysterols receptor LXR-beta (Homo sapiens, UniProt P55055); assay type: functional, cell-based;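 also: Cell-based luminescence dose-response assay of agonist activity at LXR, run as a confirmatory counterscreen to a daf-12 agonist screen; HEK293 cells with Gal4-LXR fusion and GAL4-driven luciferase reporter; agonist potency from rising luciferase signal of a Gal4-LXR reporter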
T1 sequence (P55055 whole entry): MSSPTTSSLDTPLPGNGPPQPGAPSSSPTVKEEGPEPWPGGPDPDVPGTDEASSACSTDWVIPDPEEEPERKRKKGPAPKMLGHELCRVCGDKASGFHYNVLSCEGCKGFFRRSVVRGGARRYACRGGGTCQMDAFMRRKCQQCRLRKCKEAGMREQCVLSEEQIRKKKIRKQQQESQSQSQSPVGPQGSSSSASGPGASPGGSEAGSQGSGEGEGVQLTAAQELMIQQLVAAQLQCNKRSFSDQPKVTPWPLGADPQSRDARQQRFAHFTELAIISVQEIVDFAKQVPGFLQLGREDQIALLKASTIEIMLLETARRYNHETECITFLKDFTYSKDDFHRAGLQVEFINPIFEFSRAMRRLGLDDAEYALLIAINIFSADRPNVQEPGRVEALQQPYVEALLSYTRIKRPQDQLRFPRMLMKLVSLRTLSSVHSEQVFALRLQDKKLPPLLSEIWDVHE

[4] = molecular target: T2, Sentrin-specific protease 8 (Homo sapiens, UniProt Q96LD8); assay type: functional;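 also: luminescence read-out of SENP8 inhibition, dose-response confirmation following an ultra-high-throughput screen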
T2 sequence (Q96LD8 whole entry): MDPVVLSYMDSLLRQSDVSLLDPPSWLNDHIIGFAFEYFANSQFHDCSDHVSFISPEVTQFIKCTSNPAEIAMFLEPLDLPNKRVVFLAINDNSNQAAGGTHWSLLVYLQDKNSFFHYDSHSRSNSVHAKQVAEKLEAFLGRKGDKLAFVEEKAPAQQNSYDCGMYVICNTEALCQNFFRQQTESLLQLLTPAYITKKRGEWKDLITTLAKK

[5] = molecular target: T3, Sentrin-specific protease 6 (Homo sapiens, UniProt Q9GZR1); assay type: functional;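 also: Luminescence-based dose-response confirmatory assay of SENP6 inhibition, following up an ultra-high-throughput screen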
T3 sequence (Q9GZR1 whole entry): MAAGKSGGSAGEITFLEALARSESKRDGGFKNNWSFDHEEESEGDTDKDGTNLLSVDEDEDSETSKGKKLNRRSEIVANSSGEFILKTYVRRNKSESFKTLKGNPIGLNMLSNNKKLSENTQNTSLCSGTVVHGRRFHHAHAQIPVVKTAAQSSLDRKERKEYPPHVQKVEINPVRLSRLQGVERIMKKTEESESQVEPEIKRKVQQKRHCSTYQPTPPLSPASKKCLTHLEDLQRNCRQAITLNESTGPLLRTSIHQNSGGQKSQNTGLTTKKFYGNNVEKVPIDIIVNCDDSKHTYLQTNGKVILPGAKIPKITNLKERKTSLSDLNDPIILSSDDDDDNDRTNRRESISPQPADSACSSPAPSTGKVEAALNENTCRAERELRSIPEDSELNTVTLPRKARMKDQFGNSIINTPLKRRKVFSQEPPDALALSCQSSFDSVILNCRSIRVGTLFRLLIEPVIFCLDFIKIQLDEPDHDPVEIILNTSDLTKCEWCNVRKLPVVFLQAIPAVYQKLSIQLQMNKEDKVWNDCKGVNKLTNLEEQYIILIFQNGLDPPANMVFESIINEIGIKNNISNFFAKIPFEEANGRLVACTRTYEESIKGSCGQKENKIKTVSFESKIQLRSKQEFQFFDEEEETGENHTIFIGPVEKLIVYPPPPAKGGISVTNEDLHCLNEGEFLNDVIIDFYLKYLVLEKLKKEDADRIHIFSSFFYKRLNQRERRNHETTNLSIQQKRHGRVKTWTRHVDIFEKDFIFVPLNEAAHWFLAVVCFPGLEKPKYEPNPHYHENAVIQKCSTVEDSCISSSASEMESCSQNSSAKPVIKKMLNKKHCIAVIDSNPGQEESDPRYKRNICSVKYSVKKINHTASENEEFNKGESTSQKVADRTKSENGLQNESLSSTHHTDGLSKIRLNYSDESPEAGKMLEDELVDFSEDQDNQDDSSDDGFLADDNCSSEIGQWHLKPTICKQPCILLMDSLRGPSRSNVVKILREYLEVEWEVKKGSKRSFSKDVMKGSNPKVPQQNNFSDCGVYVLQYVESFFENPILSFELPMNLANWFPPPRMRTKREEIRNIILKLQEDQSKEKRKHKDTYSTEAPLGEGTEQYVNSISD

[6] = molecular target: T4, Sentrin-specific protease 7 (Homo sapiens, UniProt Q9BQF6); assay type: functional;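 also: Luminescence-based dose-response confirmation of ultra-high-throughput screening hits, measuring inhibition of SENP7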
T4 sequence (Q9BQF6 whole entry): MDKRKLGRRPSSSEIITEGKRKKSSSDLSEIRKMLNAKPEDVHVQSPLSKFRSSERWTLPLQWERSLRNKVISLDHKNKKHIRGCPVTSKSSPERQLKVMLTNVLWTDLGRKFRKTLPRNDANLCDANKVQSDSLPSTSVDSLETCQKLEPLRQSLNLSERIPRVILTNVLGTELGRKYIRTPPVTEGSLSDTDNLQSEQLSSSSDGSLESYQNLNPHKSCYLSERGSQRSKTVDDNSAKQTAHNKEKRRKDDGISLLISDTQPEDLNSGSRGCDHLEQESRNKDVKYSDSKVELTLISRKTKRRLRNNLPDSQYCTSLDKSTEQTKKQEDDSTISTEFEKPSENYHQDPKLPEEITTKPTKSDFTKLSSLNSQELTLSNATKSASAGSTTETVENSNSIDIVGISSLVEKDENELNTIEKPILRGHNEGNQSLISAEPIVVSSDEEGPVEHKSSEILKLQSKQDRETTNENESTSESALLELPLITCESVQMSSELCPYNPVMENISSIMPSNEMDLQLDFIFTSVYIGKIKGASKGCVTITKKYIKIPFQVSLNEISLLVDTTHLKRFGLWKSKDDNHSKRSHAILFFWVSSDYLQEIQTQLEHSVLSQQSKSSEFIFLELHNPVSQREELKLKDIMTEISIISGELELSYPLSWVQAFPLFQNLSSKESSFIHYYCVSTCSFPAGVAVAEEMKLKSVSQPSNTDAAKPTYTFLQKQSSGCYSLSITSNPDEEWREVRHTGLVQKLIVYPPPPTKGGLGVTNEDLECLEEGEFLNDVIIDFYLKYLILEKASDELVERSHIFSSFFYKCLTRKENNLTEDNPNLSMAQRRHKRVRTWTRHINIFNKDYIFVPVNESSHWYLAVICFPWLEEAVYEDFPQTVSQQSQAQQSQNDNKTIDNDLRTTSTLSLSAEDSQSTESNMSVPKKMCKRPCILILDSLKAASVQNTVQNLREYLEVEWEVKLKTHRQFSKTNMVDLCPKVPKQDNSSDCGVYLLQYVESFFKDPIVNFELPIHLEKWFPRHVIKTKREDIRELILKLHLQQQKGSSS

Caspase-3 = molecular target: T5, Caspase-3 (Homo sapiens, UniProt P42574); assay type: functional;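 also: Dose-response selectivity test against caspase-3 for candidate inhibitors of sentrin-specific proteases (SENPs)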
T5 sequence (P42574 whole entry): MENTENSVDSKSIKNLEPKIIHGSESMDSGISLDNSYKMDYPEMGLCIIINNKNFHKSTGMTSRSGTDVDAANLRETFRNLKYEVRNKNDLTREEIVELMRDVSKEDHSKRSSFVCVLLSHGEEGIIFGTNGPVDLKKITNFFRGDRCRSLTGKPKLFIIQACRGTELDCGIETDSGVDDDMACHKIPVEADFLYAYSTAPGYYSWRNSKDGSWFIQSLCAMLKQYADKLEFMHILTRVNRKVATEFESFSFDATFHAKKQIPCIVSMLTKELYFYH

[7] = reduced cellular PGC1a acetyl-lysine signal – cell-based, cherry-picked samples, dose response (AID 720514); assay type: functional;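 also: potency may reflect raised or lowered acetylation signal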
[8] = Trypanosoma cruzi replication inhibitors in host cells – cell-based, plate reader, dry powder samples, dose response (AID 651845); assay type: functional
[9] = anti-trypanosomal activity in BESM host cells – imaging, CA-I/72 strain, bovine embryo skeletal muscle, dry powder, dose response (AID 651885); assay type: functional, cell-based
[10] = T. cruzi growth inhibition in host cells, dose response, cell-based, plate reader, dry powder, set 2 (AID 652275); assay type: functional
[11] = general mammalian cell viability loss – inhibitor set, cherry-pick, set 2, cytotoxicity control for miR-122 modulator project, dose response (AID 720697); assay type: functional, cell-based
[12] = general mammalian cell viability loss – activator set, cherry-pick, cytotoxicity control for miR-122 modulator project, dose response (AID 720690); assay type: functional, cell-based;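 also: HEK293T human cells scored for general mammalian cytotoxicity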
[13] = activation of miR-122 Renilla sensor silencing – cell-based, Huh7 psiCHECK-miR122, Renilla luciferase, cherry-picked, dose response (AID 651956); assay type: functional;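 also: huh7 hepatoma cells stably carrying a psiCHECK-2 miR-122 sensor plasmid; renilla luciferase signal reporting endogenous miR-122 activity after 48 h compound exposure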
[14] = viability loss in A549 lung cells – cell-based, 24 h, CellTiter-Glo luminescence, cherry-picks, cytotoxicity control, dose response (AID 1053115); assay type: functional; conditions: A549, 24 h
[15] = molecular target: Metabotropic glutamate receptor 3 (Rattus norvegicus, UniProt P31422); test: inhibition of rat mGlu3 glutamate signaling – HEK/GIRK cells, thallium flux, dose response (AID 651839); assay type: functional
Paired box protein Pax-8 = Paired box protein Pax-8 (Homo sapiens, UniProt Q06710); test: PAX8 transcriptional activity inhibition in RMG-I – RMG-I cells, luciferase, cherry-pick, dose response (AID 687027); assay type: functional, cell-based;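 also: luciferase reporter driven by Pax8 target thyroperoxidase promoter measured by SteadyGlo luminescence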
[16] = COV362 cell viability loss – plate reader, dry powder, SA12, cytotoxicity control for PAX8 inhibitor project, dose response (AID 743144); assay type: functional, cell-based
[17] = inhibitors acting on PAX2 in cells – cell-based, plate reader, dry powder samples, selectivity assay for PAX8 inhibitor project, dose response (AID 743048); assay type: functional;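 also: HEK293 cells carrying a WT1 promoter luciferase reporter driven by expressed Pax2; potency is for inhibition of Pax2 driven reporter signal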
[18] = OVCAR4 cell viability loss – plate reader, dry powder, SA11, cytotoxicity control for PAX8 inhibitor project, dose response (AID 743150); assay type: functional, cell-based; conditions: OVCAR-4
[19] = PAX5 cellular inhibition readout – cell-based, plate reader, dry powder samples, selectivity assay for PAX8 inhibitor project, dose response (AID 743047); assay type: functional;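 also: HEK293 cells carrying a Pax5 driven CD19 promoter luciferase reporter; potency of inhibitors that lower reporter luminescence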
[20] = A2780 cell killing – plate reader, dry powder samples, cytotoxicity control, dose response (AID 743046); assay type: functional, cell-based
[21] = COV434 cell viability loss – plate reader, dry powder, SA7, cytotoxicity control for PAX8 inhibitor project, dose response (AID 743145); assay type: functional, cell-based
[22] = general cell-killing toxicity readout – plate reader, dry powder samples, cytotoxicity control for PAX8 inhibitor project, dose response (AID 743021); assay type: functional, cell-based
[23] = PAX8-dependent cell viability loss – plate reader, dry powder, dose response (AID 743049); assay type: functional, cell-based
[24] = OV-90 cell viability loss – plate reader, dry powder, SA8, PAX8 inhibitor project, dose response (AID 743149); assay type: functional, cell-based
[25] = toxicity toward immortalized ovarian surface epithelium – cell-based, plate reader, dry powder samples, cytotoxicity control for PAX8 inhibitor project, dose response (AID 743045); assay type: functional
[26] = OVCAR-3 cell viability loss – plate reader, dry powder samples, PAX8 inhibitor project, dose response (AID 743044); assay type: functional, cell-based
INS1 = test: INS-1E survival protection against cytokine death – cell-based, luminescence, retest, dose response (AID 449756); assay type: functional; conditions: Rattus norvegicus;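 also: cell death triggered by IL-1 beta plus TNF-alpha plus IFN-gamma mixture; protective hits raise ATP signal compared with cytokine alone wells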

Paired box protein Pax-8, sequence (Q06710 whole entry): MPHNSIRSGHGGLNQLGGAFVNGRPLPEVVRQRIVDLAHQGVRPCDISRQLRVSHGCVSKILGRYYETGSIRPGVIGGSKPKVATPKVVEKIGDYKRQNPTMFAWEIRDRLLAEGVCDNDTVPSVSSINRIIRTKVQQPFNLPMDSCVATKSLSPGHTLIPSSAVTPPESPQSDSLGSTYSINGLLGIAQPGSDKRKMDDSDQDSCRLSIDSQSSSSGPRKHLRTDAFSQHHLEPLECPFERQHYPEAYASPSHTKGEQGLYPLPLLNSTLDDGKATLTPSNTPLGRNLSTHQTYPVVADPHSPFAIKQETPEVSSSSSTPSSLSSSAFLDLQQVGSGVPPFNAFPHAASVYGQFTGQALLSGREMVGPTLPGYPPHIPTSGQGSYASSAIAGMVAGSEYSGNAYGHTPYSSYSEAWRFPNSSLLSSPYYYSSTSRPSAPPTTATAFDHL
Metabotropic glutamate receptor 3, sequence (P31422 whole entry): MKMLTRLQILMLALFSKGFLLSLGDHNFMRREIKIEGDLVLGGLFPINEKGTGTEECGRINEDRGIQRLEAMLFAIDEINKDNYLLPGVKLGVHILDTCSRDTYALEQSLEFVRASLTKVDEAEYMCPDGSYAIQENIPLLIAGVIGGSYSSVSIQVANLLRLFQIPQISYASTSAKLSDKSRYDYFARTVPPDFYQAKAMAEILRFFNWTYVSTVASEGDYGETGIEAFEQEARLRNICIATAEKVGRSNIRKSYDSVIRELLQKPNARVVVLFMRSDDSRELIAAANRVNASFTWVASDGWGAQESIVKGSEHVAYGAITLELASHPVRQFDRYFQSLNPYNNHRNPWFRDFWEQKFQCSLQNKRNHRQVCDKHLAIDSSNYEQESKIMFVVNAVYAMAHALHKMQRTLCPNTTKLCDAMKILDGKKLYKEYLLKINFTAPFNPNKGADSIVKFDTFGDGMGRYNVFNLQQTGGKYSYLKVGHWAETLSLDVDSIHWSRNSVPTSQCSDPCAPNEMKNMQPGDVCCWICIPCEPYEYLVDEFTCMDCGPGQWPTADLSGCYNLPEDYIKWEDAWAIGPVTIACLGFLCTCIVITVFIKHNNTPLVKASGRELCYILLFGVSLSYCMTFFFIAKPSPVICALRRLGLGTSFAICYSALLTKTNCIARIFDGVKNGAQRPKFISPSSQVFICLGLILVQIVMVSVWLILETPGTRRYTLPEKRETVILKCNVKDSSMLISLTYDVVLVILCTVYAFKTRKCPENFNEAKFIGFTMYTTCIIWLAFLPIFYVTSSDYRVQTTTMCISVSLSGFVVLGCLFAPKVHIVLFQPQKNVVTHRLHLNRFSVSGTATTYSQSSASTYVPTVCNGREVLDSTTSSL

For `[N-]=[N+]=NCCOCCNC(=O)CCCOc1ccc(C[S+]([O-])c2nnc(-c3ccc(F)cc3)o2)nc1` (stereo not given), the IC90 [1] was 8 µM (active) and the IC90 [2] was 8 µM (active).
With `Cc1cc(C)nc(Nc2nc(-c3ccccc3)cs2)n1` the EC50 [3] was > 67.5 µM (inactive), the EC50 (cells) was > 67.5 µM (inactive) and the IC50 [4] was 3.29 µM (active). The IC50 [5] was 2.1 µM (active), the IC50 [6] was 1.89 µM (active) and the IC50 (Caspase-3) was > 100 µM (inactive).
For `CCOc1ccnc(OCC)c1Br`, the AC50 [7] was 32.8 µM (active).
In the case of `CC(C)N1C[C@@H](C)[C@H](CN(C)Cc2cccc(Oc3ccccc3)c2)Oc2c(NC(=O)c3ccncc3)cccc2C1=O`, the AC50 [8] is reported as 0.00713 µM (active), the IC50 [9] is reported as 1.5 µM (inconclusive) and the AC50 [10] is reported as 75 pM (active).
With `C[C@H](CO)N1C[C@H](C)[C@H](CN(C)Cc2ccc(-c3ccccc3)cc2)Oc2cc(C#C[C@@H](C)O)ccc2S1(=O)=O` the AC50 [11] was 2.82 µM (active), the AC50 [12] was 12.3 µM (active) and the AC50 [13] was 37.3 µM (active). The AC50 [14] was 50.9 µM (active).
`COc1ccc(-c2ccc3cc(C(=O)N4CCCC(CO)C4)ccc3c2)cc1OC` (stereo not given) gave an IC50 [15] of 2.61 µM.
In the case of `O=C(Nc1cccc(Cl)c1)Nc1nnc(CSCCOc2ccc(Cl)cc2)s1`, the AC50 (Paired box protein Pax-8) is reported as 5.94 µM (active), the AC50 [16] is reported as 10.7 µM (active) and the AC50 [17] is reported as 8.06 µM (active). The AC50 [18] was 22.2 µM (active), the AC50 [19] was 4.51 µM (active) and the AC50 [20] was 6.08 µM (active). The AC50 [21] was 12.8 µM (active), the AC50 [22] was 16 µM (active) and the AC50 [23] was 5.65 µM (active). The AC50 [24] was 26.1 µM (active), the AC50 [25] was 14.6 µM (active) and the AC50 [26] was 15 µM (active). The AC50 (INS1) was 3.05 µM (active).
